Data: PMC4114533, “Synthesis, Anti-tubulin and Antiproliferative SAR of Steroidomimetic Dihydroisoquinolinones” (Chemmedchem, 2014)

Assays:
[1] = system: DU-145 human prostate cancer cells; experiment: Antiproliferative assay (WST-1, 96 h), DU-145; format: cell-based; settings: for GI50: Homo sapiens, DU-145 cells, 96 h, WST-1, mean of three determinations; for antiproliferative activity (in words): in vitro antiproliferative activity, result in words
Description: (§1) Cell lines: DU-145 (brain metastasis carcinoma of the prostate) and MDA MB-231 (metastatic pleural effusion of breast adenocarcinoma) established human cell lines were obtained from ATCC Global Bioresource Center. Cells were maintained in a 5 % CO2 humidified atmosphere at 37 °C in RPMI-1640 medium, supplemented with 10 % fetal bovine serum, penicillin, (100 U mL^−1), and streptomycin (0.1 mg mL^−1). The effect of drugs on tubule formation was assessed using an angiogenesis kit (TCS-Cellworks).
(§2) Antiproliferative assays: DU-145 and MDA MB-231 cells were seeded into 96-well microtitre plates (5000 cells per well) and treated with compound (10^−9–10^−4 M) or with vehicle control. At 96 h post-treatment, live cell counts were determined by WST-1 cell proliferation assay (Roche, Penzberg, Germany), as per the manufacturer’s instructions. Viability results were expressed as a percentage of mean control values resulting in the calculation of the 50 % growth inhibition (GI50). All experiments were performed in triplicate.

[2] = system: MDA MB-231 human breast cancer cells; experiment: Antiproliferative assay (WST-1, 96 h), MDA MB-231; format: cell-based; settings: MDA MB-231 cells, WST-1, mean of three determinations
Description: as §1, §2

COc1cc(CN2CCc3cc(OCc4ccccc4)c(OC)cc3C2=O)cc(OC)c1 [7 d, 6-Benzyloxy-7-methoxy-2-(3,5-dimethoxybenzyl)-3,4-dihydroisoquinolin-1(2H)-one]
GI50 [1]: > 100 µM

COc1cc2c(cc1OCc1ccccc1)CCN(Cc1cc(OC)c(OC)c(OC)c1)C2=O [7 e, 6-Benzyloxy-7-methoxy-2-(3,4,5-trimethoxybenzyl)-3,4-dihydroisoquinolin-1(2H)-one]
GI50 [1]: > 100 µM

COc1cc2c(cc1O)CCN(Cc1ccccc1OC)C2=O [8 a, 6-Hydroxy-7-methoxy-2-(2-methoxybenzyl)-3,4-dihydroisoquinolin-1(2H)-one]
GI50 [1]: > 100 µM

COc1cc(CN2CCc3cc(O)c(OC)cc3C2=O)cc(OC)c1 [8 d, 6-Hydroxy-7-methoxy-2-(3,5-dimethoxybenzyl)-3,4-dihydroisoquinolin-1(2H)-one]
GI50 [1]: > 100 µM

COc1cc2c(cc1O)CCN(Cc1cc(OC)c(OC)c(OC)c1)C2=O [8 e, 6-Hydroxy-7-methoxy-2-(3,4,5-trimethoxybenzyl)-3,4-dihydroisoquinolin-1(2H)-one]
GI50 [1]: > 100 µM

COc1ccccc1CN1CCc2cc(OS(N)(=O)=O)c(OC)cc2C1=O [9 a, 7-Methoxy-2-(2-methoxybenzyl)-6-sulfamoyloxy-3,4-dihydroisoquinolin-1(2H)-one]
GI50 [1]: > 100 µM

COc1ccc(CN2CCc3cc(OS(N)(=O)=O)c(OC)cc3C2=O)cc1 [9 c, 7-Methoxy-2-(4-methoxybenzyl)-6-sulfamoyloxy-3,4-dihydroisoquinolin-1(2H)-one]
GI50 [1]: > 100 µM

COc1cc(CN2CCc3cc(OS(N)(=O)=O)c(OC)cc3C2=O)cc(OC)c1 [9 d, 7-Methoxy-2-(3,5-dimethoxybenzyl)-6-sulfamoyloxy-3,4-dihydroisoquinolin-1(2H)-one]
GI50 [1]: > 100 µM

COc1cc2c(cc1OS(N)(=O)=O)CCN(Cc1cc(OC)c(OC)c(OC)c1)C2=O [9 e, 7-Methoxy-6-sulfamoyloxy-2-(3,4,5-trimethoxybenzyl)-3,4-dihydroisoquinolin-1(2H)-one]
GI50 [1]: > 100 µM

COc1cc2c(cc1OCc1ccccc1)CCN(S(=O)(=O)c1ccccc1OC)C2=O [10 a, 6-Benzyloxy-7-methoxy-2-((2-methoxyphenyl)sulfonyl)-3,4-dihydroisoquinolin-1(2H)-one]
GI50 [2]: > 100 µM
GI50 [1]: > 100 µM

COc1cccc(S(=O)(=O)N2CCc3cc(OCc4ccccc4)c(OC)cc3C2=O)c1 [10 b, 6-Benzyloxy-7-methoxy-2-((3-methoxyphenyl)sulfonyl)-3,4-dihydroisoquinolin-1(2H)-one]
GI50 [2]: > 100 µM
GI50 [1]: > 100 µM

COc1cc2c(cc1OCc1ccccc1)CCN(S(=O)(=O)c1cccc(Cl)c1)C2=O [10 d, 6-Benzyloxy-7-methoxy-2-((3-chlorophenyl)sulfonyl)-3,4-dihydroisoquinolin-1(2H)-one]
GI50 [2]: > 100 µM
GI50 [1]: > 100 µM

COc1cc2c(cc1O)CCN(S(=O)(=O)c1ccccc1OC)C2=O [11 a, 6-Hydroxy-7-methoxy-2-((2-methoxyphenyl)sulfonyl)-3,4-dihydroisoquinolin-1(2H)-one]
GI50 [2]: 13.4 µM
GI50 [1]: > 100 µM

COc1cccc(S(=O)(=O)N2CCc3cc(O)c(OC)cc3C2=O)c1 [11 b, 6-Hydroxy-7-methoxy-2-((3-methoxyphenyl)sulfonyl)-3,4-dihydroisoquinolin-1(2H)-one]
GI50 [2]: > 100 µM
GI50 [1]: > 100 µM

COc1ccc(S(=O)(=O)N2CCc3cc(OS(N)(=O)=O)c(OC)cc3C2=O)cc1 [12 c, 7-Methoxy-2-((4-methoxyphenyl)sulfonyl)-6-(sulfamoyloxy)-3,4-dihydroisoquinolin-1(2H)-one]
GI50 [2]: > 100 µM
GI50 [1]: > 100 µM

COc1ccc(C(=O)N2CCc3cc(OCc4ccccc4)c(OC)cc3C2)cc1OC [14 e, 6-Benzyloxy-2-(3,4-dimethoxybenzoyl)-7-methoxy-1,2,3,4-tetra-hydroisoquinoline]
GI50 [1]: 26.7 µM

COc1cc(OC)cc(C(=O)N2CCc3cc(OCc4ccccc4)c(OC)cc3C2)c1 [14 f, 6-Benzyloxy-2-(3,5-dimethoxybenzoyl)-7-methoxy-1,2,3,4-tetra-hydroisoquinoline]
GI50 [1]: 46.8 µM

COc1cc2c(cc1OCc1ccccc1)CCN(C(=O)c1cc(OC)c(OC)c(OC)c1)C2 [14 g, 6-Benzyloxy-7-methoxy-2-(3,4,5-trimethoxybenzoyl)-1,2,3,4-tetrahydroisoquinoline]
GI50 [2]: 18.9 µM
GI50 [1]: 62.7 µM

COc1cc2c(cc1OCc1ccccc1)CCN(C(=O)c1ccccc1OC)C2=O [15 a, 6-Benzyloxy-2-(2-methoxybenzoyl)-7-methoxy-3,4-dihydroisoquinolin-1(2H)-one]
GI50 [2]: 43.6 µM
GI50 [1]: > 100 µM

COc1cc2c(cc1OCc1ccccc1)CCN(C(=O)c1cccc(C#N)c1)C2=O [15 c, 6-Benzyloxy-2-(3-cyanobenzoyl)-7-methoxy-3,4-dihydroisoquinolin-1(2H)-one]
GI50 [2]: > 100 µM
GI50 [1]: > 100 µM

COc1ccc(C(=O)N2CCc3cc(OCc4ccccc4)c(OC)cc3C2=O)cc1 [15 d, 6-Benzyloxy-2-(4-methoxybenzoyl)-7-methoxy-3,4-dihydroisoquinolin-1(2H)-one]
GI50 [1]: > 100 µM

COc1ccc(C(=O)N2CCc3cc(OCc4ccccc4)c(OC)cc3C2=O)cc1OC [15 e, 6-Benzyloxy-2-(3,4-dimethoxybenzoyl)-7-methoxy-3,4-dihydroisoquinolin-1(2H)-one]
GI50 [1]: > 100 µM

COc1cc(OC)cc(C(=O)N2CCc3cc(OCc4ccccc4)c(OC)cc3C2=O)c1 [15 f, 6-Benzyloxy-2-(3,5-dimethoxybenzoyl)-7-methoxy-3,4-dihydroisoquinolin-1(2H)-one]
GI50 [1]: > 100 µM

COc1cc2c(cc1OCc1ccccc1)CCN(C(=O)c1cc(OC)c(OC)c(OC)c1)C2=O [15 g, 6-Benzyloxy-7-methoxy-2-(3,4,5-trimethoxybenzoyl)-3,4-dihydroisoquinolin-1(2H)-one]
GI50 [2]: 77.5 µM
GI50 [1]: > 100 µM

COc1cc2c(cc1O)CCN(C(=O)c1ccccc1OC)C2=O [16 a, 6-Hydroxy-2-(2-methoxybenzoyl)-7-methoxy-3,4-dihydroisoquinolin-1(2H)-one]
GI50 [2]: 5.6 µM
GI50 [1]: 6.42 µM

COc1ccc(C(=O)N2CCc3cc(O)c(OC)cc3C2=O)cc1 [16 d, 6-Hydroxy-2-(4-methoxybenzoyl)-7-methoxy-3,4-dihydroisoquinolin-1(2H)-one]
GI50 [1]: > 100 µM
antiproliferative activity (in words) [1]: inactive

COc1cc2c(cc1O)CCN(C(=O)c1ccc(OC)c(OC)c1)C2 [18 a, 2-(3,4-Dimethoxybenzoyl)-6-hydroxy-7-methoxy-1,2,3,4-tetrahydroisoquinoline]
GI50 [1]: > 100 µM
antiproliferative activity (in words) [1]: completely inactive

COc1cc(OC)cc(C(=O)N2CCc3cc(O)c(OC)cc3C2)c1 [18 b, 2-(3,5-Dimethoxybenzoyl)-6-hydroxy-7-methoxy-1,2,3,4-tetrahydroisoquinoline]
GI50 [1]: 6.4 µM

COc1ccc(C(=O)N2CCc3cc(OS(N)(=O)=O)c(OC)cc3C2)cc1OC [19 a, 2-(3,4-Dimethoxybenzoyl)-7-methoxy-6-sulfamoyloxy-1,2,3,4-tetrahydroisoquinoline]
GI50 [1]: > 100 µM
antiproliferative activity (in words) [1]: completely inactive

COc1cc(OC)cc(C(=O)N2CCc3cc(OS(N)(=O)=O)c(OC)cc3C2)c1 [19 b, 2-(3,5-Dimethoxybenzoyl)-7-methoxy-6-sulfamoyloxy-1,2,3,4-tetrahydroisoquinoline]
GI50 [1]: 9 µM
